Experimental data published in article PMC9919490, “Synthesis and Biological Evaluation of Novel Dispiro-Indolinones with Anticancer Activity” (Molecules, 2023).
Like-named read-outs stand apart in the source and are kept apart here.

Tests used:
LNCaP cells = assay: MTT cytotoxicity assay, LNCaP (p53 pos); format: cell-based; details: 48 h
Description: (§1) The synthesized compounds were tested for their ability to block the proliferation of the selected model cell lines: LNCaP (p53+), PC3 (p53-), HCT^wt (p53+), and HCT^−/− (p53-) cells. The assay was carried out using the standard MTT (3-(4,5-dimethylthiazol-2-yl)2,5-diphenyl tetrazolium bromide) assay based on the modified approach reported by Ferrari and colleagues. […] Differences in IC50 values against these cell lines were used to assess the selectivity of the compounds.
(§2) Model cell lines were purchased from the in stock collection of the N.N. Blokhin Russian Cancer Research Center (RAMS). Cells were accurately maintained in the recommended media, supplemented with 10% heat-inactivated FBS (Invitrogen) and 2 mmol/L L-glutamine (Invitrogen).
(§3) First, 4000 cells per well were plated out in 140 µL of DMEM (with 10% FBS) in 96-well plates and incubated in 5% CO2 for 24 h at 37 °C without treatment. […] The cells were treated for 48 h with […] (eight dilutions) concentrations of the substances (each in triplicate) or doxorubicin (0.3 nM–600 nM, eight dilutions) as a control substance. After the incubation, 15 µL of MTT solution in PBS (5 mg/mL) was added, and the cells were incubated for 2 h, followed by removal of the media and addition of 120 µL of DMSO. […] Cell survival rates were determined by the comparison of optical density with the corresponding untreated control cell culture. Dose-dependent curves and the corresponding IC50 values were calculated using “GraphPad Prism 6” software (GraphPad Software, Inc., San Diego, CA, USA).

PC3 cells [1] = assay: MTT cytotoxicity assay, PC3 (p53 neg); format: cell-based
Description: as §1, §2, §3

PC3 = assay: Mechanism of cell death, flow cytometry 7AAD/annexin V, PC3; format: cell-based; details: 7AAD/annexin V staining
HCT116p53−/− = assay: Mechanism of cell death, flow cytometry 7AAD/annexin V, HCT116p53−/−; format: cell-based; details: 7AAD/annexin V staining
HCT^−/− cells = assay: MTT cytotoxicity assay, HCT^−/− (p53 neg); format: cell-based; details: 48 h
Description: as §1, §2, §3

HCT^wt cells = assay: MTT cytotoxicity assay, HCT^wt (p53 pos); format: cell-based; details: 48 h
Description: as §1, §2, §3

HCT116wt = assay: Mechanism of cell death, flow cytometry 7AAD/annexin V, HCT116wt; format: cell-based; details: 7AAD/annexin V staining
[2] = test system: SJSA1 human osteosarcoma cells; details: cited from earlier work
[3] = parameters: method as in PMID 25384157; details: rats; cited from earlier work
[4] = at 50 mg/kg, mice; cited from earlier work
MDM2 [5] = details: no reference given; cited from earlier work
[6] = test system: xenograft models of human cancer; parameters: method as in PMID 26041888; details: two types of xenograft models, oral administration; cited from earlier work
HCT116 = details: cited from earlier work
MDM2 [7] = details: binding to MDM2; cited from earlier work
[8] = test system: p53, PUMA, CASPASE-3 in HCTwt cells; assay: Western blot, p53 and p53-dependent apoptosis proteins; format: cell-based; details: HCTwt cell culture, increasing concentration; nutlin-3a 20 µM positive control
Description: To verify the mechanism of cytotoxic action of the synthesized dispiro-indolinones, Western blot testing of dispiro-indolinone 29 was performed using the p53-expressing HCTwt and LNCaP cell lines. Both the p53 protein and the proteins involved in the p53-dependent process of apoptosis (i.e., BAX, NOXA, and PUMA) were determined. For comparison, similar testing was carried out for a cell line not expressing p53 (HCT^(−/−)).

PC3 cells [9] = test system: PC3 cells; parameters: method as in earlier work; details: dye assay with sulforhodamine B; cited from earlier work
LNCaP = details: cited from earlier work
HepG2 cells = test system: HepG2 cells; parameters: method as in PMID 22524527, PMID 11495595, PMID 20218717; details: Figure 3; cited from earlier work
[10] = parameters: method as in PMID 22524527, PMID 11495595, PMID 20218717; details: Figure 3; cited from earlier work
[11] = test system: LNCaP cells expressing AR; parameters: method as in PMID 22524527, PMID 11495595, PMID 20218717; details: Figure 3; cited from earlier work
MDM2–p53 PPI = details: Figure 5a, template molecules; cited from earlier work

Row | SMILES | IC50 (LNCaP cells) | IC50 (PC3 cells [1]; 48 h) | IC50 (HCT^−/− cells) | IC50 (HCT^wt cells) | other results
1 | CN1C[C@H](c2ccc(Cl)cc2)[C@]2(NC(=S)N(c3ccccc3)C2=O)[C@]12C(=O)Nc1ccc(Br)cc12 (racemic) [Compound 13] | 1.2 ± 0.6 µM | 11.3 ± 1.2 µM | > 100 µM | 3.5 ± 1.2 µM | mechanism of cell death (PC3): early apoptosis; mechanism of cell death (HCT116p53−/−): necrosis/late apoptosis; mechanism of cell death (HCT116wt): early apoptosis
2 | CN1C[C@H](c2ccccc2Cl)[C@]2(NC(=S)N(c3ccc(O)cc3)C2=O)[C@]12C(=O)Nc1ccc(Cl)cc12 (racemic) [Compound 55] | 7 ± 1 µM | 15.1 ± 1.2 µM | > 100 µM | > 100 µM | 
3 | COc1ccc([C@H]2CN(C)[C@@]3(C(=O)Nc4ccc(Br)cc43)[C@@]23NC(=S)N(c2ccc(O)cc2)C3=O)cc1OC (racemic) [Compound 56] | 9 ± 2 µM | 30 ± 10.5 µM | > 100 µM | > 100 µM | 
4 | COc1ccc([C@H]2CN(C)[C@@]3(C(=O)Nc4ccc(Cl)cc43)[C@@]23NC(=S)N(c2ccc(O)cc2)C3=O)cc1OC (racemic) [Compound 57] | 17 ± 1 µM | 20 ± 6.9 µM | > 100 µM | > 100 µM | 
5 | COc1cc(NC(=O)C[C@@]2(C)C[C@H](c3cccc(Cl)c3)[C@@H](c3ccc(Cl)c(F)c3)N([C@H](CS(=O)(=O)C(C)(C)C)C3CC3)C2=O)ccc1C(=O)O [AM-7209] |  |  |  |  | IC50 [2]: 0.0016 µM
6 | CC[C@@H]([C@H](C)O)N1C(=O)[C@@](C)(CC(=O)O)C[C@H](c2cccc(Cl)c2)[C@H]1c1ccc(Cl)cc1 [AM-8553] |  |  |  |  | oral bioavailability [3]: 100%
7 | CN1CC(c2ccccc2)C2(NC(=S)N(c3ccccc3)C2=O)C12C(=O)Nc1ccccc12 (stereo not drawn) [Compound 4] |  |  | > 100 µM | > 100 µM | IC50 (LNCaP cells; Homo sapiens, LNCaP): > 100 µM; IC50 (PC3 cells [1]; Homo sapiens, PC-3, 48 h): > 100 µM; melting point: 211 to 212 °C
8 | C#CCOc1ccc(N2C(=O)[C@]3(NC2=S)[C@@H](c2ccc(Cl)cc2)CN(C)[C@@]32C(=O)Nc3ccccc32)cc1 [Compound 35] |  |  | > 100 µM | > 100 µM | IC50 (LNCaP cells; Homo sapiens, LNCaP): > 100 µM; IC50 (PC3 cells [1]; Homo sapiens, PC-3, 48 h): > 100 µM
9 | COc1ccc(C2CN(C)C3(C(=O)Nc4ccc(Cl)cc43)C23NC(=S)N(c2ccc(Cl)cc2)C3=O)cc1OC (stereo not drawn) [Compound 39, 1-(4-chlorophenyl)-4’-(3,4-dimethoxyphenyl)-1’-methyl-5’’’-chloro-2-thiooxodispiro[imidazolidine-4,3’-pyrrolidine-2’,3”-indoline]-2”,5-dione] | > 100 µM | > 100 µM | > 100 µM | > 100 µM | 
10 | CN1CC(c2ccc(Cl)cc2)C2(NC(=S)N(c3ccc(O)cc3)C2=O)C12C(=O)Nc1ccccc12 (stereo not drawn) [Compound 50, 1-(4-hydroxyphenyl)-4’-(4-chlorophenyl)-1’-methyl-2-thiooxodispiro[imidazolidine-4,3’-pyrrolidine-2’,3”-indoline]-2”,5-dione] | 18 ± 4.7 µM | 4.65 ± 2.3 µM | > 100 µM | 6.9 ± 3.1 µM | 
11 | CN1CC(c2ccc(Cl)cc2)C2(NC(=S)N(c3ccc(O)cc3)C2=O)C12C(=O)Nc1ccc(Br)cc12 (stereo not drawn) [Compound 51, 1-(4-hydroxyphenyl)-4’-(4-chlorophenyl)-1’-methyl-5’’’-bromo-2-thiooxodispiro[imidazolidine-4,3’-pyrrolidine-2’,3”-indoline]-2”,5-dione] | > 100 µM | > 100 µM | > 100 µM | > 100 µM | 
12 | CN1CC(c2ccccc2Cl)C2(NC(=S)N(c3ccc(O)cc3)C2=O)C12C(=O)Nc1ccc(Br)cc12 (stereo not drawn) [Compound 54, 1-(4-hydroxyphenyl)-4’-(2-chlorophenyl)-1’-methyl-5’’’-bromo-2-thiooxodispiro[imidazolidine-4,3’-pyrrolidine-2’,3”-indoline]-2”,5-dione] | 9.5 ± 2.5 µM | 20 ± 8.4 µM | > 100 µM | > 100 µM | 
13 | C#CCN1C(=O)[C@]2(c3ccccc31)N(C)C[C@H](c1cccc(Cl)c1)[C@]21NC(=S)N(c2ccc(OC)c(Cl)c2)C1=O [Compound 69] |  |  | > 100 µM | > 100 µM | IC50 (LNCaP cells; Homo sapiens, LNCaP): > 100 µM; IC50 (PC3 cells [1]; Homo sapiens, PC-3, 48 h): > 100 µM; melting point: 199 to 200 °C
14 | CC(C)(C)C[C@H]1N[C@@H](C(=O)NCC[C@H](O)CO)[C@H](c2cccc(Cl)c2)[C@@]12C(=O)Nc1cc(Cl)c(F)cc12.Cl [MI-219] |  |  |  |  | oral bioavailability [4]: 55–65%; Ki (MDM2 [5]): 0.005 µM
15 | CC(C)(C)C[C@@H]1N[C@@H](C(=O)N[C@H]2C[C@@](C)(O)C2)[C@H](c2cccc(Cl)c2F)[C@]12C(=O)Nc1cc(Cl)ccc12 [MI-888] |  |  |  |  | tumor regression [6]: rapid, complete, and durable tumor regression; IC50 [2]: ~0.09 µM
16 | COc1ccc(C2=N[C@@H](c3ccc(Cl)cc3)[C@@H](c3ccc(Cl)cc3)N2C(=O)N2CCNC(=O)C2)c(OC(C)C)c1 [Nutlin-3a, reference compound] |  | 28.9 ± 3.7 µM | > 100 µM | 4.5 ± 1.3 µM | CC50 (HCT116; dye assay, sulforhodamine B): 4.63 ± 0.78 µM; IC50 (MDM2 [7]): […]; concentration / expression of the p53 protein [8]: […]; CC50 (PC3 cells [9]): 6.37 ± 1 µM; CC50 (LNCaP; MTT assay): 1.5 µM
17 | CCOc1cc(C(C)(C)C)ccc1C1=N[C@@](C)(c2ccc(Cl)cc2)[C@@](C)(c2ccc(Cl)cc2)N1C(=O)N1CCN(CCCS(C)(=O)=O)CC1 [RG-7112] |  |  |  |  | CC50 (HCT116; MTT tests): 0.54 ± 0.12 µM; CC50 (LNCaP; MTT tests): 0.18 µM
18 | N#Cc1cc(N2C(=O)C3(CCC3)N(c3ccc(C(=O)NCCCN4CCCC4)c(F)c3)C2=S)ccc1C(F)(F)F [XIX] |  |  |  |  | IC50 (HepG2 cells): < 1 µM
19 | O=C1NC(=S)N[C@@]12O[C@H](CO)[C@@H](O)[C@H](O)[C@H]2O [XVIII] |  |  |  |  | Ki [10]: 0.007 ± 0.0011 µM
20 | Cc1ccc(N2C(=S)N(c3ccc(C#N)c(C(F)(F)F)c3)C(=O)C23CCC3)cc1 [XVII] |  |  |  |  | IC50 [11]: 0.124 µM
21 | CC(C)(C)CC1NC(C(=O)NCCN)C(c2cccc(Cl)c2F)C12C(=O)Nc1cc(Cl)ccc12 (stereo not drawn) [XX] |  |  |  |  | IC50 (MDM2–p53 PPI): 0.0094 µM
